Test results taken from patent publication US20090281110A1, “Method of Treatment” (priority 2006, published 2009).

How the values were obtained:
[1] = biological target: T1, recombinant human IL-8 type α and β receptors (Homo sapiens, UniProt P25025); assay: Receptor Binding Assay ([125I] IL-8 / GRO-α displacement, CHO membranes); conditions: receptor subtype (IL-8Rα or IL-8Rβ) not given
T1 sequence (P25025 1-360): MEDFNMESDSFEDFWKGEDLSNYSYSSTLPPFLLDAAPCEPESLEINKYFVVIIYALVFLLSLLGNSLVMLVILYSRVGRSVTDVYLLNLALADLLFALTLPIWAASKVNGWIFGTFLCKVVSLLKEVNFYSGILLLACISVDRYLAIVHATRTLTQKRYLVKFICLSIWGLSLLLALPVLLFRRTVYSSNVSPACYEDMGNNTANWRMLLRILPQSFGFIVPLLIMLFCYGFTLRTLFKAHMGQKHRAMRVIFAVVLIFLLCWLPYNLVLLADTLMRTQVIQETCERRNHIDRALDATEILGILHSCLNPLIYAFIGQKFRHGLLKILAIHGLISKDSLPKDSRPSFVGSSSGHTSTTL

[2] = tested on: rat estrogen opposition model; assay: Rat Model of Estrogen Opposition: Uterotrophic Model Assay; assay type: in vivo; conditions: 30 mg/kg/day
Procedure: A rat estrogen opposition model (Lundeen, S. G. et al., (2001) Rat Uterine Complement C3 Expression as a Model for Progesterone Receptor Modulators: Characterization of the New Progestin Trimegestone. J. Steroid Biochem. & Mol. biol. 78, 137-143, incorporated herein to the extent required to perform the present assay) was used to determine the efficacy of Example 2f at 30 mg/kg/day. This was a 48 hour rodent model involving a pre-treatment of compound followed by two days of combined estrogen (0.08 mg/kg) and compound treatment. At termination, uteri were removed from the rats weighed and sectioned for downstream biochemical analysis. Estrogen in this model was pro-inflammatory, inducing edema and infiltration of neutrophils into the endometrium causing a 4 to 5 fold increase in uterine weight. A significant effect of compound treatment on uterine weight was considered approximately a 25% decrease.

Row | IC50 [1] | SMILES | gene expression level of MMP-9 reduced compared to vehicle control and estrogen treated rats ([2]; rat uterus) [%] | gene expression of C3 reduced compared to estrogen only treatment ([2]; rat uterus) [%] | gene expression of cfos reduced compared to estrogen only treatment ([2]; rat uterus) [%] | reduced estrogen-induced uterine wet weight ([2]; rat, 48 hour model, estrogen 0.08 mg/kg) [%+/−5%]
1 | about 13 nM | Cl.O=C(Nc1ccc(Cl)c(S(=O)(=O)N2CCNCC2)c1O)Nc1cccc(F)c1Cl [Example 1, N-[4-chloro-2-hydroxy-3-(piperazine-1-sulfonyl)phenyl]-N′-(2-chloro-3-fluorophenyl)urea hydrochloride] | – | – | – | –
2 | – | CN1CCN(S(=O)(=O)c2c(Cl)ccc(NC(=O)Nc3cccc(F)c3Cl)c2O)CC1.Cc1ccc(S(=O)(=O)O)cc1 [Example 2f, N-[4-chloro-2-hydroxy-3-(4-methyl-piperazine-1-sulfonyl)-phenyl]-N′-(2-chloro-3-fluorophenyl)-urea p-toluenesulfonate] | 50 | 84 | 50 | 66
